From DBAASP
≈ marks a conversion by molar mass, not a printed value. Blank lines part the entries; values can stand above or below the compound they belong to.

Legend:
Experiment in all cases: ≥ marks a high value that may be exact or a test limit, other limits are often not marked, values filed in µg/mL are converted to µM
Pseudomonas aeruginosa = test system: Pseudomonas aeruginosa
[1] = test system: Micrococcus luteus ATCC 9341
[2] = test system: Escherichia coli DH5alpha
Klebsiella pneumoniae = test system: Klebsiella pneumoniae
Salmonella typhimurium = test system: Salmonella typhimurium
Streptococcus mutans = test system: Streptococcus mutans
Escherichia coli B = test system: Escherichia coli B
[3] = test system: Candida albicans F7-39/IDE99
Staphylococcus aureus = test system: Staphylococcus aureus
Bacillus subtilis 168 = test system: Bacillus subtilis 168
[4] = test system: Micrococcus luteus CCM 144
[5] = test system: Burkholderia thailandensis
Escherichia coli K91BK = test system: Escherichia coli K91BK
[6] = test system: Bacillus subtilis var. niger ATCC 9372
[7] = test system: Bacillus anthracis Sterne 34F2
[8] = test system: Candida parapsilosis ATCC 22019
[9] = test system: Candida albicans ATCC 24433

Structure (SMILES): CC[C@H](C)[C@H](N)C(=O)N[C@@H](CC(C)C)C(=O)N[C@@H](C)C(=O)N[C@@H](Cc1c[nH]c2ccccc12)C(=O)N[C@@H](CCCCN)C(=O)N[C@@H](Cc1c[nH]c2ccccc12)C(=O)N1CCC[C@H]1C(=O)N[C@@H](Cc1c[nH]c2ccccc12)C(=O)N[C@@H](Cc1c[nH]c2ccccc12)C(=O)N1CCC[C@H]1C(=O)N[C@@H](Cc1c[nH]c2ccccc12)C(=O)N[C@@H](CCCN=C(N)N)C(=O)N[C@@H](CCCN=C(N)N)C(N)=O [ILAWKWPWWPWRR]
MIC (Pseudomonas aeruginosa): 50 µM (≈ 94 µg/mL) | MIC [1]: 0.4 µM (≈ 0.752 µg/mL) | MIC [2]: ≥ 35 µM | MIC (Klebsiella pneumoniae): 35 µM (≈ 65.8 µg/mL) | MIC (Salmonella typhimurium): ≥ 50 µM

Structure (SMILES): CC(C)C[C@H](NC(=O)[C@H](Cc1ccccc1)NC(=O)[C@H](Cc1cnc[nH]1)NC(=O)[C@H](Cc1ccc(O)cc1)NC(=O)[C@@H](N)CC(C)C)C(=O)N[C@@H](Cc1cnc[nH]1)C(=O)N[C@@H](Cc1c[nH]c2ccccc12)C(=O)N[C@@H](Cc1ccccc1)C(=O)N[C@@H](CCC(N)=O)C(=O)N[C@@H](CCCN=C(N)N)C(=O)N[C@@H](Cc1ccccc1)C(N)=O [LYHFLHWFQRF]
MIC (Streptococcus mutans): ≥ 78.4 µM

Structure (SMILES): CC[C@H](C)[C@H](NC(=O)[C@H](CCCCN)NC(=O)[C@H](CCCN=C(N)N)NC(=O)CNC(=O)[C@H](CC(C)C)NC(=O)[C@H](CCCN=C(N)N)NC(=O)[C@H](CCCN=C(N)N)NC(=O)[C@H](CC(C)C)NC(=O)CNC(=O)[C@H](CCCN=C(N)N)NC(C)=O)C(=O)N[C@@H](C)C(=O)N[C@@H](Cc1cnc[nH]1)C(=O)NCC(=O)N[C@H](C(=O)N[C@@H](CCCCN)C(=O)N[C@@H](CCCCN)C(=O)NCC(=O)NCC(=O)N1CCC[C@H]1C(=O)N[C@H](C(=O)N[C@H](C(=O)N[C@@H](CC(C)C)C(=O)N[C@@H](CCCN=C(N)N)C(=O)N[C@H](C(=O)N[C@H](C(=O)N[C@@H](CCCN=C(N)N)C(=O)N[C@H](C(=O)N[C@@H](C)C(=O)NCC(N)=O)[C@@H](C)CC)[C@@H](C)CC)[C@@H](C)CC)C(C)C)[C@@H](C)O)C(C)C [RGLRRLGRKIAHGVKKGGPTVLRIIRIAG]
MIC [5]: ≥ 100 µM | MIC (Escherichia coli K91BK): ≥ 100 µM | MIC [6]: 7.87 µM (≈ 25.1 µg/mL) | MIC [7]: ≥ 70.2 µM

Structure (SMILES): CC[C@H](C)[C@H](NC(=O)[C@H](CCCCN)NC(=O)[C@H](CCCN=C(N)N)NC(=O)[C@H](CCCCN)NC(=O)[C@H](CC(C)C)NC(=O)[C@H](CCCN=C(N)N)NC(=O)[C@H](CCCN=C(N)N)NC(=O)[C@H](CC(C)C)NC(=O)[C@H](CCCCN)NC(=O)[C@H](CCCN=C(N)N)NC(C)=O)C(=O)N[C@@H](C)C(=O)N[C@@H](Cc1cnc[nH]1)C(=O)N[C@@H](CCCCN)C(=O)N[C@H](C(=O)N[C@@H](CCCCN)C(=O)N[C@@H](CCCCN)C(=O)N[C@@H](Cc1ccc(O)cc1)C(N)=O)C(C)C [RKLRRLKRKIAHKVKKY]
MIC [5]: ≥ 100 µM | MIC (Escherichia coli K91BK): ≥ 100 µM | MIC [6]: ≥ 57.4 µM | MIC [7]: ≥ 100 µM

The next lines start with the values.

MIC (Streptococcus mutans): ≥ 176 µM
Structure (SMILES): CC[C@H](C)[C@H](NC(=O)[C@H](CCC(N)=O)NC(=O)[C@H](CCCCN)NC(=O)[C@H](Cc1ccccc1)NC(=O)[C@@H](NC(=O)[C@H](CCC(N)=O)NC(=O)[C@H](CC(C)C)NC(=O)[C@H](CC(C)C)NC(=O)[C@@H](N)CCCCN)[C@@H](C)O)C(=O)N[C@@H](Cc1ccccc1)C(=O)N[C@@H](CCCN=C(N)N)C(=O)O [KLLQTFKQIFR]

MIC (Escherichia coli B): 12.5 µM (≈ 17.6 µg/mL) | MIC (Pseudomonas aeruginosa): > 100 µM | MIC [3]: 10.8 µM (≈ 15.2 µg/mL) | MIC (Staphylococcus aureus): 36.7 µM (≈ 51.6 µg/mL) | MIC (Bacillus subtilis 168): 4.5 µM (≈ 6.32 µg/mL) | MIC [4]: 2.5 µM (≈ 3.51 µg/mL)
Structure (SMILES): CC[C@H](C)[C@H](NC(=O)CNC(=O)[C@H](C)NC(=O)[C@H](Cc1c[nH]c2ccccc12)NC(=O)[C@H](CC(C)C)NC(=O)[C@@H](N)CC(N)=O)C(=O)N[C@@H](CC(C)C)C(=O)N[C@@H](CCCCN)C(=O)N[C@@H](Cc1cnc[nH]1)C(=O)N[C@H](C(=O)N[C@H](C(=O)N[C@@H](CCCCN)C(N)=O)[C@@H](C)CC)[C@@H](C)CC [NLWAGILKHIIK]

MIC [8]: ≥ 267 µM | MIC [9]: ≥ 267 µM
Structure (SMILES): CC(C)C[C@H](NC(=O)[C@H](CCCN=C(N)N)NC(=O)[C@H](CCC(N)=O)NC(=O)[C@H](Cc1cnc[nH]1)NC(=O)[C@@H](NC(=O)[C@H](CCCCN)NC(=O)[C@H](CC(C)C)NC(=O)[C@H](CCC(=O)O)NC(=O)[C@H](CO)NC(=O)[C@H](CCCN=C(N)N)NC(=O)[C@@H](N)CO)C(C)C)C(=O)N[C@@H](Cc1ccccc1)C(N)=O [SRSELKVHQRLF]

MIC [8]: ≥ 262 µM | MIC [9]: ≥ 262 µM
Structure (SMILES): CC(C)C[C@H](NC(=O)[C@H](CCCN=C(N)N)NC(=O)[C@H](CCC(N)=O)NC(=O)[C@H](Cc1cnc[nH]1)NC(=O)[C@@H](NC(=O)[C@H](CCCN=C(N)N)NC(=O)[C@H](CC(C)C)NC(=O)[C@H](CCC(=O)O)NC(=O)[C@H](CO)NC(=O)[C@H](CCCN=C(N)N)NC(=O)[C@@H](N)CO)C(C)C)C(=O)N[C@@H](Cc1ccccc1)C(N)=O [SRSELRVHQRLF]
